Reference: patent publication US20250188030A1, “Biphenyl and Phenylpyridine Compounds” (Pfizer Inc., priority 2023, published 2025)
Where two headings read alike, the source gives them in different places.

Key:
[1] = tested on: H3K9AC (HT1080 cells); experiment: H3K9AC Sandwich ELISA Assay in HT1080 cells (KAT2A primary cell-based screening assay); parameters: species or system Human
Outline: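 Acetylated H3K9 quantified by luminescent sandwich ELISA (total H3 capture, H3K9ac detection) on HCl lysates of HT1080 cells. Cells had 24 h compound exposure at 37 °C, top concentration 10 µM, 10-point 3-fold series, 0.1% DMSO; IC50 from four-parameter fitting.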

[2] = tested on: MM.1S cells; experiment: MM1.S 10 Day Proliferation Assay (CellTiter-Glo); assay type: cell-based, Human
Procedure: Human B lymphoblast cell line MM.1S was obtained from American Type Culture Collection (ATCC), Manassas, VA USA, Cat. MM.1S (ATCC® CRL-2974™). Cells were cultured in RPMI (Thermo Fisher Scientific/Gibco Life Technologies Cat. #111875-093) plus 10% (v/v) FBS (Thermo Fisher Scientific/Gibco Life Technologies Cat. #26140-079) and 1% Penicillin-Streptomycin (Thermo Fisher Scientific/Gibco Life Technologies Cat. #15070063) at 37° C. in 5% CO2.
MM1.S cells were trypsinized cell viability count performed, and cells suspended in complete media at 5,556 cells/ml. Cells were then seeded (90 μl/well) into a 96-well round black/clear bottom, ULA (Ultra-Low Attachment surface plate (Corning cat #4520) at a density of 500 cells/well. Cells were then incubated for 16 hours at 37° C. and 5% CO2. Compound dilution plates were prepared in 96-well, clear U-bottom, polypropylene plates (Corning 3365) in 100% DMSO at 10 mM stock concentration in duplicate wells, using a 10-point serial dilution (1:3 dilutions). Compounds were diluted to 1:100 in growth medium. Then 10 μl of diluted compounds were added to each well of the cell plates using a Beckman FX liquid handling system such that the highest compound concentration tested was 10 μM final, with a 0.1% final DMSO concentration in the total volume of 100 μl. Plates were incubated for 10 total days at 37° C. and 5% CO2. Fresh media containing compound was refreshed at 5 days treatment.
Finally, the treatment plates were removed from the incubator and 100 μl of CellTiter-Glo Luminescent reagent was added to each well, and plates were equilibrated in the dark for 30 minutes. Plates were read on the PHERAstar plate reader using the 96-well with Luminescent reading mode. IC50 values were calculated using a four-parameter fit with GraphPad Prism version 9.5.1 or in house modified IDBS ActivityBase data analyzing package.

[3] = target: KAT2A (Homo sapiens (Human), UniProt Q92830); experiment: KAT2A acetyltransferase biochemical assay (RapidFire mass spectrometry, AcCoA to CoA)
Chain of KAT2A (Q92830 whole entry): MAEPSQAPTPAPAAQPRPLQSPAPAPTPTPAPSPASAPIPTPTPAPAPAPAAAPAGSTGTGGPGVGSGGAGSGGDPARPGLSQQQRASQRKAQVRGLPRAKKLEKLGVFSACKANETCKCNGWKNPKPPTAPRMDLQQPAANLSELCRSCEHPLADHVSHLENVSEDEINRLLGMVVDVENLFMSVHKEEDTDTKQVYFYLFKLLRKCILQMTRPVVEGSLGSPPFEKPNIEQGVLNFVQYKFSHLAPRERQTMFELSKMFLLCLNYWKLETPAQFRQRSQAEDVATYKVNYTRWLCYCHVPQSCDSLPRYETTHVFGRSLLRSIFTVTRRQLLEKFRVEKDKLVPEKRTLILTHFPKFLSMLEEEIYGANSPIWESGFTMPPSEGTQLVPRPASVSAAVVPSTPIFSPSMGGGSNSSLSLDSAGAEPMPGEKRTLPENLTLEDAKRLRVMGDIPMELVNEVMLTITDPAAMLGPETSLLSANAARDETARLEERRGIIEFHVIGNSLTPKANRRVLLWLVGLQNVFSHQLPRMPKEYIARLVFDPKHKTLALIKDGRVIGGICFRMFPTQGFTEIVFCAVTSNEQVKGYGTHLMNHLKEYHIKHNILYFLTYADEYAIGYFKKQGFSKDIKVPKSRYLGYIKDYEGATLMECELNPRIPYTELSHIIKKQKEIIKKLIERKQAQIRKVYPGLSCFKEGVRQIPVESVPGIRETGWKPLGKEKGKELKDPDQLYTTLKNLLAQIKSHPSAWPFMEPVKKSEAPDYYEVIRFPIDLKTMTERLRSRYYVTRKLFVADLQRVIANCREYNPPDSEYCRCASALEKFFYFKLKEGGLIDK

[4] = Homo sapiens, HT-1080, H3K9AC sandwich ELISA
[5] = read-out: KAT2A Ki at 1 μM AcCoA, 5 μM H3 1-21 peptide, 0.5 nM KAT2A, 90-minute reaction
[6] = KAT2A Ki at 1 μM AcCoA, 5 μM H3 1-21 peptide, 0.5 nM KAT2A, 90-minute reaction

| SMILES | IC50 [1, 4] [nM] | IC50 ([2]; Homo sapiens, MM1.S, 240 h) [nM] | Ki [3, 5] [nM] | IC50 ([1]; H3K9AC sandwich ELISA) [nM] | IC50 [2] [nM] | Ki [3, 6] [nM] |
| --- | --- | --- | --- | --- | --- | --- |
| CN1C[C@](F)(C(=O)N[C@@H]2CC[C@@H](Oc3ccc(C(C)(C)C(=O)NS(C)(=O)=O)cc3-c3cccc(F)c3C3CCC3)C2)CC1(C)C (single isomer, unassigned) [Example B7] | 20.9 | 102 | 3.78 | – | – | – |
| CC(C)(C(=O)NS(=O)(=O)C1CC1)c1ccc(O[C@@H]2CC[C@@H](NC(=O)[C@]3(F)CNC4(CCC4)C3)C2)c(-c2cccc(F)c2C2CCC2)c1 (single isomer, unassigned) [Example B12] | 1.4 | 14.1 | 0.18 | – | – | – |
| CCS(=O)(=O)NC(=O)C(C)(C)c1ccc(O[C@@H]2CC[C@@H](NC(=O)[C@@]3(F)CNC(C)(C)C3)C2)c(-c2cccc(F)c2C2CCC2)c1 (single isomer, unassigned) [Example B14] | – | – | 1.83 | 49.1 | 553 | – |
| CS(=O)(=O)NC(=O)Cc1ccc(O[C@@H]2CC[C@@H](NC(=O)C3(F)CNC4(CCCC4)C3)C2)c(-c2cccc(F)c2C2CCC2)c1 (single isomer, unassigned) [Example B16] | 2.68 | 11.6 | – | – | – | 0.08 |
| CC(C)S(=O)(=O)NC(=O)C(C)(C)c1ccc(O[C@@H]2CC[C@@H](NC(=O)[C@@]3(F)CNC(C)(C)C3)C2)c(-c2cccc(F)c2C2CCC2)c1 (single isomer, unassigned) [Example B17] | – | – | 0.1 | 3.49 | 41.7 | – |
| CC(C)S(=O)(=O)NC(=O)C(C)(C)c1ccc(O[C@@H]2CC[C@@H](NC(=O)[C@@]3(F)CNC(C)(C)C3)C2)c(-c2cccc(F)c2C2CCC2)c1 (single isomer, unassigned) [Example B18] | – | – | 16.1 | 121 | 1270 | – |
| CCS(=O)(=O)NC(=O)C(C)(C)c1ccc(O[C@@H]2CC[C@@H](NC(=O)[C@@]3(F)CNCC(C)(C)C3)C2)c(-c2cccc(F)c2C2CCC2)c1 (single isomer, unassigned) [Example B22] | 2.38 | 2.51 | 0.09 | – | – | – |
| CC(C)(C(=O)NS(=O)(=O)C1CC1)c1ccc(O[C@@H]2CC[C@@H](NC(=O)[C@@]3(F)CNC4(CCCC4)C3)C2)c(-c2cccc(F)c2C2CCC2)c1 (single isomer, unassigned) [Example B26] | 2.2 | 7.4 | 0.06 | – | – | – |
| CC(C)S(=O)(=O)NC(=O)C(C)(C)c1ccc(O[C@@H]2CC[C@@H](NC(=O)[C@@]3(F)CNCC(C)(C)C3)C2)c(-c2cccc(F)c2C2CCC2)c1 (single isomer, unassigned) [Example B30] | 1.7 | 4.2 | 0.09 | – | – | – |
| CCS(=O)(=O)NC(=O)C(C)(C)c1ccc(O[C@@H]2CC[C@@H](NC(=O)[C@@]3(F)CNCC4(CCC4)C3)C2)c(-c2cccc(F)c2C2CCC2)c1 (single isomer, unassigned) [Example B31] | – | 1.4 | 0.04 | 2.1 | – | – |
| CC(C)(C(=O)NS(=O)(=O)C1(C)CC1)c1ccc(O[C@@H]2CC[C@@H](NC(=O)[C@@]3(F)CNC4(CCC4)C3)C2)c(-c2cccc(F)c2C2CCC2)c1 (single isomer, unassigned) [Example B34] | 3.1 | 8.4 | 0.04 | – | – | – |
| CCc1c(F)cccc1-c1cc(C(C)(C)C(=O)NS(C)(=O)=O)ccc1O[C@@H]1CC[C@@H](NC(=O)[C@@]2(F)CNC3(CCC3)C2)C1 (single isomer, unassigned) [Example C11] | 21.6 | 253 | 2.22 | – | – | – |
| CC(C)c1c(F)cccc1-c1cc(C(C)(C)C(=O)NS(C)(=O)=O)ccc1O[C@@H]1CC[C@@H](NC(=O)[C@@]2(F)CNC3(CCC3)C2)C1 (single isomer, unassigned) [Example C20] | – | – | 708 | > 1000 | > 10000 | – |
| CC(C)(C(=O)NS(=O)(=O)C1(C)CC1)c1ccc(O[C@@H]2CC[C@@H](NC(=O)[C@@]3(F)CNC4(CCC4)C3)C2)c(-c2cccc(F)c2C2CC2)c1 (single isomer, unassigned) [Example C22] | – | – | 0.14 | 4.49 | 7.8 | – |
| O=C(Cc1ccc(O[C@@H]2CC[C@@H](NC(=O)[C@@]3(F)CNC4(CCC4)C3)C2)c(-c2cccc(F)c2C2CCC2)c1)NS(=O)(=O)C1CC1 (single isomer, unassigned) [Example C31] | 1.78 | 2.85 | 0.02 | – | – | – |
| CC1(C)CNC[C@](F)(C(=O)N[C@@H]2CC[C@@H](Oc3ccc(C(C)(C)C(=O)NS(=O)(=O)C4(C)CC4)cc3-c3cccc(F)c3C3CCC3)C2)C1 (single isomer, unassigned) [Example C35] | 3.5 | 7.8 | 0.14 | – | – | – |
| CC1(C)CNC[C@](F)(C(=O)N[C@@H]2CC[C@@H](Oc3ccc(C(C)(C)C(=O)NS(C)(=O)=O)cc3-c3cccc(F)c3C3CCC3)C2)C1 (single isomer, unassigned) [Example C37] | 3 | 11 | 0.06 | – | – | – |
| CS(=O)(=O)NC(=O)Cc1ccc(O[C@@H]2CC[C@@H](NC(=O)[C@]3(F)CNC4(CCC4)C3)C2)c(-c2cccc(F)c2C2CCC2)c1 (single isomer, unassigned) [Example C38] | 6.1 | 10.2 | – | – | – | 0.09 |
| CC(C)c1c(F)cccc1-c1cc(C(C)(C)C(=O)NS(=O)(=O)C2(C)CC2)ccc1O[C@@H]1CC[C@@H](NC(=O)[C@@]2(F)CNC3(CCC3)C2)C1 (single isomer, unassigned) [Example C43] | 2.8 | 4.2 | 0.06 | – | – | – |
| CCc1c(F)cccc1-c1cc(C(C)(C)C(=O)NS(=O)(=O)C(C)C)ccc1O[C@@H]1CC[C@@H](NC(=O)[C@@]2(F)CNCC(C)(C)C2)C1 (single isomer, unassigned) [Example C45] | – | 52.4 | 0.11 | 9.6 | – | – |
| CC(C)S(=O)(=O)NC(=O)C(C)(C)c1ccc(O[C@@H]2CC[C@@H](NC(=O)[C@@]3(F)CNC4(CCC4)C3)C2)c(-c2ccccc2C2CCC2)c1 (single isomer, unassigned) [Example C48] | 4.7 | 18.9 | 0.21 | – | – | – |
| CCc1c(F)cccc1-c1cc(CC(=O)NS(=O)(=O)C2(C)CC2)ccc1O[C@@H]1CC[C@@H](NC(=O)[C@@]2(F)CNC3(CCCC3)C2)C1 (single isomer, unassigned) [Example C50] | 0.6 | 1.4 | 0.19 | – | – | – |
| CCc1c(F)cccc1-c1cc(CC(=O)NS(=O)(=O)C2(C)CC2)ccc1O[C@@H]1CC[C@@H](NC(=O)[C@@]2(F)CNCC(C)(C)C2)C1 (single isomer, unassigned) [Example C57] | – | 7.6 | 0.05 | 4.1 | – | – |
| CCS(=O)(=O)NC(=O)Cc1ccc(O[C@@H]2CC[C@@H](NC(=O)C3(F)CNCC4(CCC4)C3)C2)c(-c2cccc(F)c2C2CCC2)c1 (single isomer, unassigned) [Example C60] | – | 5 | 0.04 | 3.2 | – | – |
| CC(C)c1ccccc1-c1cc(CC(=O)NS(=O)(=O)C2(C)CC2)ccc1O[C@@H]1CC[C@@H](NC(=O)[C@@]2(F)CNC3(CCCC3)C2)C1 (single isomer, unassigned) [Example C61] | 0.2 | 0.7 | 0.07 | – | – | – |
